Assay results reported in doi:10.1101/2023.08.03.551817v2 (biorxiv, 2024).

How the values were obtained:
Experiment in all cases: two-electrode voltage clamp, Xenopus oocytes
[1] = target: T1, GluN1/GluN2A NMDA receptor (GluN1 ligand-binding site) (Rattus norvegicus, UniProt P35439); type: cell-based
T1 construct: gene Grin1; pcDNA3.1 inserts; mRNA-injected Xenopus laevis oocytes; hetero-tetramer

[2] = target: T2, GluN1/GluN2A NMDA receptor (GluN1 ligand-binding site) (Rattus norvegicus, UniProt P35439, D732L); type: cell-based
T2 construct: gene Grin1; pcDNA3.1 inserts; mRNA-injected Xenopus laevis oocytes; hetero-tetramer

AKDF^19383 [3] = system: T3, AKDF^19383; type: cell-based, Trichoplax adhaerens; settings: inhibition of constitutive current; pH 7.5; -80 mV
T3 construct: gene TRIADDRAFT_19383; codon-optimized, modified pSP64-poly(A); Xenopus laevis oocytes; homo-tetramer

AKDF^19383 [4] = system: T3, AKDF^19383; type: cell-based, Trichoplax adhaerens; settings: pH 7.5; -80 mV; agonist
[5] = target: T4, GluN1/GluN2A NMDA receptor (channel pore) (Rattus norvegicus, UniProt P35439+Q00959); type: cell-based; settings: glycine and glutamate present; pH 7.3; -60 mV; open-channel block kinetics
T4 construct: gene Grin1; pcDNA3.1 inserts; mRNA-injected Xenopus laevis oocytes; hetero-tetramer

## O=C(O)c1cc(O)c2c(Cl)cc(Cl)cc2n1 [5,7-dichlorokynurenic acid]
[1]
  IC50: 24.9 ± 5.2 µM
[2]
  IC50: 0.44 ± 0.12 µM

## N[C@H](CO)C(=O)O [D-serine]
AKDF^19383 [3]
  % inhibition at 10 mM: ~ 50%
AKDF^19383 [4]
  EC50: 490 ± 120 µM

## C[C@]12N[C@H](Cc3ccccc31)c1ccccc12 [MK-801]
[5]
  two-electrode voltage clamp, Xenopus oocytes: very similar kinetics of inhibition of WT and mutant receptors (Fig. 3A)

## C[C@H](N)C(=O)O [alanine]
AKDF^19383 [3]
  % inhibition at 10 mM: ~ 50%

## NCC(=O)O [glycine]
AKDF^19383 [3]
  % inhibition at 10 mM: ~ 50%
